Source: patent US11834450B2, “Compounds having ((3-nitrophenyl)sulfonyl)acetamide as BCL-2 inhibitors” (Eil Therapeutics, Inc., priority 2021, dated 2023)

Columns and labels:
[1] = target: T1, BCL-XL (Homo sapiens, UniProt Q07817); test: BCL-XL TR-FRET Assay (primary PPI inhibition); format: binding; details: 60 min incubation; read-out: BCLxL (IC50 code, BCL-XL TR-FRET)
T1 construct: purchased BPS Bioscience #50223
How it was run: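 10.5 ng His-tagged BCL-XL incubated 60 min with test compound, BCL-XL peptide ligand (1:80), Tb-labelled anti-His donor and dye-labelled acceptor (each 1:100). Displacement read as TR-FRET, excitation 340 nm, emission 620 and 665 nm, 60 μs delay, 500 μs integration.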

[2] = system: RS4-11 cells; test: Cell viability assay RS4-11 (CellTiter-Glo); format: cell-based; details: Homo sapiens, 72 h; RS4-11 cells, 3 days, CellTiter-Glo; read-out: RS4-11 (CC50 code)
How it was run: (§1)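 Cells were seeded at 2000/well (HEK293, in DMEM, pre-incubated a day) or 4000/well (other lines, in RPMI-1640). Serially diluted compound was added and plates incubated 3 days at 37 °C, with viability read by CellTiter-Glo luminescence.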

[3] = target: T2, BCL-2 (Homo sapiens, UniProt P10415); test: BCL-2 TR-FRET Assay (primary PPI inhibition); format: binding; details: 60 min incubation; read-out: BCL2 (IC50 code, BCL-2 TR-FRET)
T2 construct: purchased BPS Bioscience #50222
T2 sequence (P10415 whole entry): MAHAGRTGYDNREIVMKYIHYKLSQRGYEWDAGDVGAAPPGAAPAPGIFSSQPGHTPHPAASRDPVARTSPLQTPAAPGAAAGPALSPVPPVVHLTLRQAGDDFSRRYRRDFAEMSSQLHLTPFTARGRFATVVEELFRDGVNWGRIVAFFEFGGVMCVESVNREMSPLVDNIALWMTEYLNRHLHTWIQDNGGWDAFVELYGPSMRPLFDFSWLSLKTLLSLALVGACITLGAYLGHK

[4] = system: MOLT-4 cells; test: Cell viability assay MOLT-4 (CellTiter-Glo); format: cell-based; details: Homo sapiens, 72 h; MOLT-4 cells, 3 days, CellTiter-Glo; read-out: MOLT-4 (CC50 code)
How it was run: as §1

[5] = system: caspase-3 and -7 activities in RS4-11 cells; test: Cas-3/7 activation (Caspase-Glo 3/7) in RS4-11 cells; format: cell-based; details: Homo sapiens, 3.5 h at 37° C. and 30 min at r.t., read-out: Cas-3/7 (EC50 code)
How it was run: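 RS4-11 cells were exposed to graded compound concentrations for 3.5 h at 37° C/5% CO2, then 30 min at room temperature. Caspase-3/7 activity was measured by luminescence after 30 min with a DEVD luminogenic substrate reagent.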

[6] = Cell viability assay HEK293 (CellTiter-Glo); format: cell-based; details: human, HEK293 cells, read-out: HEK293 (CC50 code)
How it was run: as §1

T1 sequence (Q07817 whole entry): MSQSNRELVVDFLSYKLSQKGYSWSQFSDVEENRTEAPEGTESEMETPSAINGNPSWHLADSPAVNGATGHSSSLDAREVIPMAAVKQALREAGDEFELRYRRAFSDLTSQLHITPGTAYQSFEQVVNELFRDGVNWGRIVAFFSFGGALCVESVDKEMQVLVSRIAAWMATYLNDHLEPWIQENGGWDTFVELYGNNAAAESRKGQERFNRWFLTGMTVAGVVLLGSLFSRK

Structure (SMILES)	IC50 [1] [µM]	CC50 [2] [µM]	IC50 [3] [µM]	CC50 [4] [µM]	EC50 [5] [µM]	CC50 at 3 days [6] [µM]
O=C(NS(=O)(=O)c1ccc(NCC2CCOCC2)c([N+](=O)[O-])c1)c1ccc(N2CCN(C[C@H]3Cc4ccccc4CN3C(=O)C3CC3)CC2)cc1Oc1cnc2[nH]ccc2c1 [Compound 33, 4-[4-[[(3R)-2-(cyclopropanecarbonyl)-3,4-dihydro-1H-isoquinolin-3-yl]methyl]piperazin-1-yl]-N-[3-nitro-4-(tetrahydropyran-4-ylmethylamino)phenyl]sulfonyl-2-(1H-pyrrolo[2,3-b]pyridin-5-yloxy)benzamide]	> 4	> 0.2	0.01 to 0.05	2 to 10	> 0.25	> 25
O=C(NS(=O)(=O)c1ccc(NCC2CCOCC2)c([N+](=O)[O-])c1)c1ccc(N2CCN(CC34CC(O)CCC3(c3ccc(Cl)cc3)C4)CC2)cc1Oc1cnc2[nH]ccc2c1 (stereo not drawn) [Compound 80, 4-[4-[[6-(4-chlorophenyl)-3-hydroxy-norcaran-1-yl]methyl]piperazin-1-yl]-N-[3-nitro-4-(tetrahydropyran-4-ylmethylamino)phenyl]sulfonyl-2-(1H-pyrrolo[2,3-b]pyridin-5-yloxy)benzamide]	≤ 2	> 0.2	> 0.05	> 10	> 0.25	10 to 25
COCCNc1ccc(S(=O)(=O)NC(=O)c2ccc(N3CCC(CN4CCCCC4c4ccc(Cl)cc4)CC3)cc2Oc2cnc3[nH]ccc3c2)cc1[N+](=O)[O-] (stereo not drawn) [Compound 61, 4-[4-[[2-(4-chlorophenyl)-1-piperidyl]methyl]-1-piperidyl]-N-[4-(2-methoxyethylamino)-3-nitro-phenyl]sulfonyl-2-(1H-pyrrolo[2,3-b]pyridin-5-yloxy)benzamide]	≤ 2	0.1 to 0.2	> 0.05	2 to 10	> 0.25	> 25
CC1=CC[C@@H]2C[C@H]1[C@H](c1ccc(Cl)cc1)N(CC1CCN(c3ccc(C(=O)NS(=O)(=O)c4ccc(NCC5CCOCC5)c([N+](=O)[O-])c4)c(Oc4cnc5[nH]ccc5c4)c3)CC1)C2 [Compound 55, 4-[4-[[(1R,4R, 5R)-4-(4-chlorophenyl)-6-methyl-3-azabicyclo[3.3.1]non-6-en-3-yl]methyl]-1-piperidyl]-N-[3-nitro-4-(tetrahydropyran-4-ylmethylamino)phenyl]sulfonyl-2-(1H-pyrrolo[2,3-b]pyridin-5-yloxy)benzamide]	> 4	> 0.2	> 0.05	2 to 10	> 0.25	> 25
O=C(NS(=O)(=O)c1ccc(NCC2CCOCC2)c([N+](=O)[O-])c1)c1ccc(N2CCN(CC3Cc4ccccc4CN3C(=O)c3cccs3)CC2)cc1Oc1cnc2[nH]ccc2c1 (stereo not drawn) [Compound 6, N-[3-nitro-4-(tetrahydropyran-4-ylmethylamino)phenyl]sulfonyl-2-(1H-pyrrolo[2,3-b]pyridin-5-yloxy)-4-[4-[[2-(thiophene-2-carbonyl)-3,4-dihydro-1H-isoquinolin-3-yl]methyl]piperazin-1-yl]benzamide]	≤ 2	> 0.2	> 0.05	2 to 10	> 0.25	> 25
